Measurements as given in patent US10618916B2, “Heterocyclic compounds as immunomodulators” (Incyte Corporation, priority 2018, dated 2020).

Tests used:
[1] = test system: PD-L1 aAPC/CHO-K1 cells and Jurkat-PD-1-NFAT effector cells; test: Nuclear factor of activated T-cells (NFAT) assay; assay type: cell-based; details: Cricetulus griseus, CHO-K1
In short: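 CHO-K1 cells expressing PD-L1 aAPC were co-cultured with Jurkat-PD-1-NFAT effector cells in RPMI 1640 with 1% FBS and compound (0.4% DMSO; top concentration 2 μM) for 24 h at 37 °C. Bio-Glo luminescence was read, fold induction normalised to DMSO wells, and EC50 fitted from percent of control compound activity.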

PD-L1 = PD-L1 (Homo sapiens (Human), UniProt Q9NZQ7); test: PD-L1 whole blood internalization assay; assay type: cell-based; details: 24 HR, PD-L1 expression on CD14+ cells, human interferon γ
PD-L1, sequence (Q9NZQ7 19-290): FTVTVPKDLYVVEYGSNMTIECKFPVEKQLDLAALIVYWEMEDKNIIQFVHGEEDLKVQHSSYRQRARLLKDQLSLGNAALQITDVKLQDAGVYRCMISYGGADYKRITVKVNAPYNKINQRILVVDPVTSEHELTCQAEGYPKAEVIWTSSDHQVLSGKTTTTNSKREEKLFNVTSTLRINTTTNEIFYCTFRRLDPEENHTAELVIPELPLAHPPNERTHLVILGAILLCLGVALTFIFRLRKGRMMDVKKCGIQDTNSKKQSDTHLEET
Method: Example D. PD-L1 Whole Blood Internalization Assay
To determine PD-L1 internalization in human whole blood, normal human blood (Biological Specialty Corp, Colmar. Pa.) was incubated in the presence or absence of a concentration range of test compounds and 1 ng/ml human interferon γ (R&D Systems Inc. Minn. […] Blood was then stained with PD-L1 (MIH1, eBioscience; or BD Biosciences San Jose, Calif.), CD14 (Life Technologies, Carlsbad, Calif.) for 30 minutes in the dark at room temperature. Whole Blood/red cells were lysed/fixed (lysis buffer BD Biosciences) for 5 minutes at 37° C. in the dark and then centrifuged at 1600 RPM for 5 minutes. Cells were resuspended in Stain Buffer (BD Bioscience, San Jose, Calif.) and transferred into 96 well round bottom plates (Corning). Cells were gated on CD14+(BD Biosciences) and PD-L1 expression determined by mean fluorescence intensity (MFI) (BD LSRFortessa™ X-20). IC50 determination was performed by fitting the curve of compound percent inhibition versus the log of the compound concentration using the GraphPad Prism 7.0 software.

[2] = biological target: PD-1/PD-L1 protein/protein interaction (recombinant human PD-L1 and human PD-1) (Homo sapiens (Human), UniProt Q9NZQ7); test: Homogeneous Time-Resolved Fluorescence (HTRF) PD-1/PD-L1 binding assay
PD-1/PD-L1 protein/protein interaction (recombinant human PD-L1 and human PD-1), sequence (Q9NZQ7 19-238): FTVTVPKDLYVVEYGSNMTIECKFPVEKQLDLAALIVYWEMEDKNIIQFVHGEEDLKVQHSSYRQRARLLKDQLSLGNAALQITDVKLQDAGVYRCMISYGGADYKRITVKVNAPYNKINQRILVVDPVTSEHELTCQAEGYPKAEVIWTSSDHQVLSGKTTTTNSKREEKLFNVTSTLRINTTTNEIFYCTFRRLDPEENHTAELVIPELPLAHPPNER
In short: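 Human PD-L1 (19-238, C-His; 10 nM final) and PD-1 (25-167, C-Fc; 3 nM final) preincubated 40 min with inhibitor in PBS pH 7.4, 0.05% Tween-20, 0.1% BSA, 1% DMSO, 25 °C. Eu-anti-human IgG (1 nM) and anti-His-APC (20 nM) added for 60 min; 665/620 nm ratio; IC50 from percent-control curves.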

[3] = test system: U2OS/PD-L1 cells and Jurkat-PD-1-SHP cells; test: Src homology region 2 domain-containing phosphatase (SHP) assay; assay type: cell-based; details: Homo sapiens, U2OS
In short: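 U2OS/PD-L1 and Jurkat-PD-1-SHP cells (5000 each per well) were co-incubated with compound for 2 h at 37 °C in RPMI1640 with 1% FBS, 0.05% DMSO final. PathHunter chemiluminescence was read after 1 h at room temperature, and IC50 was fitted from percent of DMSO-control activity.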

Structure (SMILES)	EC50 [1]	IC50 (PD-L1)	IC50 [2]	IC50 [3]
Cc1c(NC(=O)c2nc3c(n2C)CCNC3)cccc1-c1cccc(NC(=O)c2nc3c(n2C)CCN(CCC24CCC(C(=O)O)(CC2)C4)C3)c1Cl [Example 27, 4-(2-(2-((2-chloro-2′-methyl-3′-(1-methyl-4,5,6,7-tetrahydro-1H-imidazo[4,5-c]pyridine-2-carboxamido)-[1,1′-biphenyl]-3-yl)carbamoyl)-1-methyl-1,4,6,7-tetrahydro-5H-imidazo[4,5-c]pyridin-5-yl)ethyl)bicyclo[2.2.1]heptane-1-carboxylic Acid]	10 to 100 nM	10 to 100 nM	≤ 5 nM	≤ 10 nM
Cc1c(NC(=O)c2nc3c(n2C)CCN(CCC24CCC(C(=O)O)(CC2)C4)C3)cccc1-c1cccc(NC(=O)c2nc3c(n2C)CCN(CCO)C3)c1Cl [Example 43, 4-(2-(2-((2′-chloro-3′-(5-(2-hydroxyethyl)-1-methyl-4,5,6,7-tetrahydro-1H-imidazo[4,5-c]pyridine-2-carboxamido)-2-methyl-[1,1′-biphenyl]-3-yl)carbamoyl)-1-methyl-1,4,6,7-tetrahydro-5H-imidazo[4,5-c]pyridin-5-yl)ethyl)bicyclo[2.2.1]heptane-1-carboxylic acid]	10 to 100 nM	10 to 100 nM	≤ 5 nM	≤ 10 nM
Cn1c(C(=O)Nc2cccc(-c3cccc(NC(=O)c4nc5c(n4C)CCN(CC4(C(=O)O)CC4)C5)c3Cl)c2Cl)nc2c1CCN(CCC13CCC(C(=O)O)(CC1)C3)C2 [Example 22, 4-(2-(2-((3′-(5-((1-carboxycyclopropyl)methyl)-1-methyl-4,5,6,7-tetrahydro-1H-imidazo[4,5-c]pyridine-2-carboxamido)-2,2′-dichloro-[1,1′-biphenyl]-3-yl)carbamoyl)-1-methyl-1,4,6,7-tetrahydro-5H-imidazo[4,5-c]pyridin-5-yl)ethyl)bicyclo[2.2.1]heptane-1-carboxylic acid]	10 to 100 nM	10 to 100 nM	≤ 5 nM	≤ 10 nM
Cc1c(NC(=O)c2nc3c(n2C)CCN(CCC24CCC(C(=O)O)(CC2)C4)C3)cccc1-c1cccc(NC(=O)c2nc3c(n2C)CCN(CCC24CCC(C(=O)O)(CC2)C4)C3)c1Cl [Example 34, 4,4′-(((((2-chloro-2′-methyl-[1,1′-biphenyl]-3,3′-diyl)bis(azanediyl))bis(carbonyl))bis(1-methyl-1,4,6,7-tetrahydro-5H-imidazo[4,5-c]pyridine-2,5-diyl))bis(ethane-2,1-diyl))bis(bicyclo[2.2.1]heptane-1-carboxylic acid)]	10 to 100 nM	10 to 100 nM	≤ 5 nM	≤ 10 nM
Cn1c(C(=O)Nc2cccc(-c3cccc(NC(=O)c4nc5c(n4C)CCN(CCC46CCC(C(=O)O)(CC4)C6)C5)c3Cl)c2Cl)nc2c1CCN(CCCO)C2 [Example 16, 4-(2-(2-((2,2′-dichloro-3′-(5-(3-hydroxypropyl)-1-methyl-4,5,6,7-tetrahydro-1H-imidazo[4,5-c]pyridine-2-carboxamido)-[1,1′-biphenyl]-3-yl)carbamoyl)-1-methyl-1,4,6,7-tetrahydro-5H-imidazo[4,5-c]pyridin-5-yl)ethyl)bicyclo[2.2.l]-heptane-1-carboxylic acid]	≤ 10 nM	10 to 100 nM	≤ 5 nM	≤ 10 nM
Cn1c(C(=O)Nc2cccc(-c3cccc(NC(=O)c4nc5c(n4C)CCN(CC46CCC(C(=O)O)(CC4)C6)C5)c3Cl)c2Cl)nc2c1CCN(CCC13CCC(C(=O)O)(CC1)C3)C2 [Example 18, 4-((2-((3′-(5-(2-(4-carboxybicyclo[2.2.1]heptan-1-yl)ethyl)-1-methyl-4,5,6,7-tetrahydro-1H-imidazo[4,5-c]pyridine-2-carboxamido)-2,2′-dichloro-[1,1′-biphenyl]-3-yl)carbamoyl)-1-methyl-1,4,6,7-tetrahydro-5H-imidazo[4,5-c]pyridin-5-yl)methyl)bicyclo[2.2.1]heptane-1-carboxylic acid]	10 to 100 nM	10 to 100 nM	≤ 5 nM	≤ 10 nM
